# Patent publication US10710978B2, “STK4 inhibitors for treatment of hematologic malignancies” (Dana-Farber Cancer Institute, Inc., priority 2015, dated 2020)
# Read-outs that look alike come from different tables or passages of the source.
# Experiments:
# Test in all cases: KiNativ assay
# Assay type in all cases: binding
# Details in all cases: H929 live cell
# [1] = test system: ABL, ARG
# Experimental: (§1) Biochemical IC50s of the compounds of the present disclosure against various kinases were measured in a KiNativ assay. Compounds were screened in duplicate at 10 μM in H929 live cell. IC50 was measured via Mass spectroscopy (MS).
# [2] = target: BRAF (Homo sapiens (Human), UniProt P15056)
# Experimental: as §1
# [3] = target: CDK7 (Homo sapiens (Human), UniProt P50613)
# Experimental: as §1
# [4] = target: CSK (Homo sapiens (Human), UniProt P41240)
# Experimental: as §1
# [5] = target: EphB2 (Homo sapiens (Human), UniProt P29323)
# Experimental: as §1
# [6] = target: GSK3A (Homo sapiens (Human), UniProt P49840)
# GSK3A, sequence (P49840 whole entry): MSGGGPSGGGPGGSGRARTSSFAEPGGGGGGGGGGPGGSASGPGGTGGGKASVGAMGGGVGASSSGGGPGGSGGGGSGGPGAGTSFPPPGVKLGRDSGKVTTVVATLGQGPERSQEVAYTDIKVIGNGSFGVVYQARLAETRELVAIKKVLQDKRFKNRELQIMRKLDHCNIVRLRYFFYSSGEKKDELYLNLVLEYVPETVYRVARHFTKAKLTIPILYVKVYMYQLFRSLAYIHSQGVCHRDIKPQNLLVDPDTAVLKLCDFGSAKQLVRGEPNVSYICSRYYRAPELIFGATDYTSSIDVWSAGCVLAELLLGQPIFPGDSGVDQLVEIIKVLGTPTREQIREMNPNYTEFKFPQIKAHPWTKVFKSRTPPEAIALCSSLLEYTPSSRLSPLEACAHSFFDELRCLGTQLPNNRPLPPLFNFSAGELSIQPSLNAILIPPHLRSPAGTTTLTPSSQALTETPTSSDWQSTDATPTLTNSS
# Experimental: as §1
# [7] = test system: IKKe, TBK1
# Experimental: as §1
# [8] = target: ILK (Homo sapiens (Human), UniProt Q13418)
# ILK, sequence (Q13418 whole entry): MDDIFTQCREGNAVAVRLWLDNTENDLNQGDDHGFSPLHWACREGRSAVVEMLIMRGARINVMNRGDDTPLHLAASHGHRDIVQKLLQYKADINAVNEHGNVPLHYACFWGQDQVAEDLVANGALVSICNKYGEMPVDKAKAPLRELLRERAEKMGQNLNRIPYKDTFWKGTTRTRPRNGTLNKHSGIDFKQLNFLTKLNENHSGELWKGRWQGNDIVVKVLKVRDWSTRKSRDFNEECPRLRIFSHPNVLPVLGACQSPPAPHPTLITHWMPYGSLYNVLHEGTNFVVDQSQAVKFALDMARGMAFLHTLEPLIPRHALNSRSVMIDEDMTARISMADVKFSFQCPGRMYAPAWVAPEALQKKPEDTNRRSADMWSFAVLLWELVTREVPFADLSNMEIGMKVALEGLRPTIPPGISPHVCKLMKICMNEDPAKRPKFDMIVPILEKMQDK
# Experimental: as §1
# [9] = target: LATS1 (Homo sapiens (Human), UniProt O95835)
# LATS1, sequence (O95835 whole entry): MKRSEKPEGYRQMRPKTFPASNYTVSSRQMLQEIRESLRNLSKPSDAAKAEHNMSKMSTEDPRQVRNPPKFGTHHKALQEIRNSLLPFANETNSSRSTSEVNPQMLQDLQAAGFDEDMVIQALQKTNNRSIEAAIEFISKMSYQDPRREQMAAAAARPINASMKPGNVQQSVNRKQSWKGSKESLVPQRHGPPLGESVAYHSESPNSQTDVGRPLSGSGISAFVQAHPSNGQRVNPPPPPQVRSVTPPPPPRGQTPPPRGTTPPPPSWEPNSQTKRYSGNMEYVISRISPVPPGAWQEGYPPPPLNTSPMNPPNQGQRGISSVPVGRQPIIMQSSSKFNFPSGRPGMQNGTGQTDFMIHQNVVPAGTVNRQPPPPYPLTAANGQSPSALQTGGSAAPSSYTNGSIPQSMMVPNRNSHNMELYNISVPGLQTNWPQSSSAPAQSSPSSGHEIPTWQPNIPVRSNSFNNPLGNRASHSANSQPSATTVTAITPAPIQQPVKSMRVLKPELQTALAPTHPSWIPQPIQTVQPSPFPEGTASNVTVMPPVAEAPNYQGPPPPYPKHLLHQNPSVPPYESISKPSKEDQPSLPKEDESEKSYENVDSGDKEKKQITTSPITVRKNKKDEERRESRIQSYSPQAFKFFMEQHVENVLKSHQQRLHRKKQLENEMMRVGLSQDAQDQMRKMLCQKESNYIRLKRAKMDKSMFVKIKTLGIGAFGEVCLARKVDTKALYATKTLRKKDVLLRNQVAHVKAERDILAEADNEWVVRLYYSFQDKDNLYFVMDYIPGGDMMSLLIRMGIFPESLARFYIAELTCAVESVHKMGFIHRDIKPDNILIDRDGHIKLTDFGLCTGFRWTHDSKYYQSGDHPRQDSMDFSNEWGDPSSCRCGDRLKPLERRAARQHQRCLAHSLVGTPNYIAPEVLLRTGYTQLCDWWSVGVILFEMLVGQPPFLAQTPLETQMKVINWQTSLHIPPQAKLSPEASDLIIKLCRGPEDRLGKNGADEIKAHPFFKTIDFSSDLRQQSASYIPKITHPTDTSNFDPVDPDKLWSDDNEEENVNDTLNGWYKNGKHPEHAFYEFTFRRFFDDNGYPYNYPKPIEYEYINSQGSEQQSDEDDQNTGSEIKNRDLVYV
# Experimental: as §1
# [10] = target: MAP2K5 (Homo sapiens (Human), UniProt Q13163)
# Experimental: as §1
# [11] = target: MAP2K7 (Homo sapiens (Human), UniProt O14733)
# Experimental: as §1
# [12] = target: MAP3K1 (Homo sapiens (Human), UniProt Q13233)
# Experimental: as §1
# [13] = target: MAP3K2 (Homo sapiens (Human), UniProt Q9Y2U5)
# MAP3K2, sequence (Q9Y2U5 whole entry): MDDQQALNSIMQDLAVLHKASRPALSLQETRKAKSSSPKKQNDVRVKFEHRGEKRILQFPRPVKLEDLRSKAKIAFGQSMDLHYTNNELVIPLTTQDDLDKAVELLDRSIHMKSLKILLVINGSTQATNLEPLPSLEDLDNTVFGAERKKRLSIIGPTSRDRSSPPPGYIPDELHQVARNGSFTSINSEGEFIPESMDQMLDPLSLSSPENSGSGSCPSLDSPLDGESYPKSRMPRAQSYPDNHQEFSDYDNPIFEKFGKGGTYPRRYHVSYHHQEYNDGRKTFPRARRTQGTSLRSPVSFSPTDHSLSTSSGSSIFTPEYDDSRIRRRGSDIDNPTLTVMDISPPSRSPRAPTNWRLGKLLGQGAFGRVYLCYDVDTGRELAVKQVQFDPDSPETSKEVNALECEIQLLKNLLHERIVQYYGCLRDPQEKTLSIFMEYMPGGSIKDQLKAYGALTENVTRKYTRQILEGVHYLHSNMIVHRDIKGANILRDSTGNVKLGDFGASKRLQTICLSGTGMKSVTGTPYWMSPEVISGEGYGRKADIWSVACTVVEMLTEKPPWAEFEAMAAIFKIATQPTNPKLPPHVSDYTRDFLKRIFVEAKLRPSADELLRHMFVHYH
# Experimental: as §1
# [14] = test system: MARK1, MARK2
# Experimental: as §1
# [15] = target: MARK2 (Homo sapiens (Human), UniProt Q7KZI7)
# MARK2, sequence (Q7KZI7 whole entry): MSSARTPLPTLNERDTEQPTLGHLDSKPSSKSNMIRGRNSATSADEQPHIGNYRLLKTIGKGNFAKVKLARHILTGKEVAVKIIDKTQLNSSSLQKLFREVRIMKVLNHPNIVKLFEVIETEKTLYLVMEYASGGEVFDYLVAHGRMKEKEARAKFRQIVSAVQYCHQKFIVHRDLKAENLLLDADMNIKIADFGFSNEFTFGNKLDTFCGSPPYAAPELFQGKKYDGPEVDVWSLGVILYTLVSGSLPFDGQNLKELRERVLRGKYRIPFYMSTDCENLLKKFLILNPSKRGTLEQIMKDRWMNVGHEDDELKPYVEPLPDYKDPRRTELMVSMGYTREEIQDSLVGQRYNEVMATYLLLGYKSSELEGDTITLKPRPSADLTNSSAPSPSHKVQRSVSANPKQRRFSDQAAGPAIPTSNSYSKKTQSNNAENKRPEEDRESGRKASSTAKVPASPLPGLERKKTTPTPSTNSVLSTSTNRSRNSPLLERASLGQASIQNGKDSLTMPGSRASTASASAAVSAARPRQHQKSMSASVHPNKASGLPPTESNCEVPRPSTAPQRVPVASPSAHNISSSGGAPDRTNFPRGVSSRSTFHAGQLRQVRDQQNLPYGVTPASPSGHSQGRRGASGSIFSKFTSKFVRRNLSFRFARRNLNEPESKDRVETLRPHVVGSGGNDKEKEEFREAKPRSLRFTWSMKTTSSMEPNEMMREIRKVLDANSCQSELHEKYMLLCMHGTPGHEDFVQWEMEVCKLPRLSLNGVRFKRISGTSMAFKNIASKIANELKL
# Experimental: as §1
# [16] = target: MLKL (Homo sapiens (Human), UniProt Q8NB16)
# Experimental: as §1
# [17] = target: MPSK1 (Homo sapiens (Human), UniProt O75716)
# Experimental: as §1
# [18] = target: MST1 (Homo sapiens (Human), UniProt Q13043)
# Experimental: as §1
# [19] = target: MST3 (Homo sapiens (Human), UniProt Q9Y6E0)
# MST3, sequence (Q9Y6E0 whole entry): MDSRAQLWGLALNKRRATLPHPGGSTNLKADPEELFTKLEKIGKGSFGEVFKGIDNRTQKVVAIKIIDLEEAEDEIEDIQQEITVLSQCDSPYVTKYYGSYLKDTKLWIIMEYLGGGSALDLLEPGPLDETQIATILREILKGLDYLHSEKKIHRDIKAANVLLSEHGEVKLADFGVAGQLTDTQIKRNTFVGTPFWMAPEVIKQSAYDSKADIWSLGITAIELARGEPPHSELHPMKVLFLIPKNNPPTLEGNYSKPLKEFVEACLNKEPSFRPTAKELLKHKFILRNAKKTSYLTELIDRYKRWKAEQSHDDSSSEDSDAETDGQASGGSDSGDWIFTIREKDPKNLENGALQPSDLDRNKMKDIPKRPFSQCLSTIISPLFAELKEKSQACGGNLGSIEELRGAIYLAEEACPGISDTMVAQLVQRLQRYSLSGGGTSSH
# Experimental: as §1
# [20] = target: NDR1 (Homo sapiens (Human), UniProt Q15208)
# NDR1, sequence (Q15208 whole entry): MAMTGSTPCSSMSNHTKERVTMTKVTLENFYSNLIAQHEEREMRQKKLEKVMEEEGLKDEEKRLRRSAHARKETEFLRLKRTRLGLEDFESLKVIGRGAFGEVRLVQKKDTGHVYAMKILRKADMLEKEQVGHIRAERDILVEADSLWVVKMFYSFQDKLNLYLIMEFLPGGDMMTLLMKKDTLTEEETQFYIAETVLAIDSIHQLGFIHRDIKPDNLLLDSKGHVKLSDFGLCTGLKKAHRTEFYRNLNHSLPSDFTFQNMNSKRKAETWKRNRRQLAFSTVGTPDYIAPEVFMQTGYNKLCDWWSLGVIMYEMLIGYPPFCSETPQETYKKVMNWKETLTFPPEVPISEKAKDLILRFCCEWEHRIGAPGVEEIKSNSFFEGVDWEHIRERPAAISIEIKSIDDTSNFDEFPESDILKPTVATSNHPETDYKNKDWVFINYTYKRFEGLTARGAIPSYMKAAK
# Experimental: as §1
# [21] = target: NuaK1 (Homo sapiens (Human), UniProt O60285)
# NuaK1, sequence (O60285 whole entry): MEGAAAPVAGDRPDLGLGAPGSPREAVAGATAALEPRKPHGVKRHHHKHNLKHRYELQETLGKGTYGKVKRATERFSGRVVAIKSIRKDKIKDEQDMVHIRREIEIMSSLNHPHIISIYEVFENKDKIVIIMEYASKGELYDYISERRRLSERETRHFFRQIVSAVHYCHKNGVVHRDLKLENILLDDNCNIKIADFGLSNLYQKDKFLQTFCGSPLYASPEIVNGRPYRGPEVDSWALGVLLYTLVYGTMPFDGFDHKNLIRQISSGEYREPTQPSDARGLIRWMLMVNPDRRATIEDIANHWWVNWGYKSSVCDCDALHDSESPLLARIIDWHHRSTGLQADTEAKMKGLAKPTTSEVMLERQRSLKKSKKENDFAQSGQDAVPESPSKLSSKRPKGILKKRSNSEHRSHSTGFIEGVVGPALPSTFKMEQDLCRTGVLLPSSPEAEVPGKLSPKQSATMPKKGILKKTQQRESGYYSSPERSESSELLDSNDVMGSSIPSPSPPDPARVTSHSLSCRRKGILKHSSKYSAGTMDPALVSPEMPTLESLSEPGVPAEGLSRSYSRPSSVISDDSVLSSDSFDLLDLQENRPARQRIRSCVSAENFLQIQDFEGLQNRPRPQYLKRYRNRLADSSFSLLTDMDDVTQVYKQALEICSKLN
# Experimental: as §1
# [22] = target: PFTAIRE1 (Homo sapiens (Human), UniProt O94921)
# Experimental: as §1
# [23] = test system: PI4KA, PI4KAP2
# Experimental: as §1
# [24] = target: PIK3CG (Homo sapiens (Human), UniProt P48736)
# Experimental: as §1
# [25] = target: PKD2 (Homo sapiens (Human), UniProt Q9BZL6)
# Experimental: as §1
# [26] = target: PRP4 (Homo sapiens (Human), UniProt Q13523)
# Experimental: as §1
# [27] = target: SLK (Homo sapiens (Human), UniProt Q9H2G2)
# Experimental: as §1
# [28] = target: SMG1 (Homo sapiens (Human), UniProt Q96Q15)
# Experimental: as §1
# [29] = target: SNRK (Homo sapiens (Human), UniProt Q9NRH2)
# Experimental: as §1
# [30] = target: SRPK1 (Homo sapiens (Human), UniProt Q96SB4)
# Experimental: as §1
# [31] = test system: TAO1, TAO3
# Experimental: as §1
# [32] = target: ULK1 (Homo sapiens (Human), UniProt O75385)
# Experimental: as §1
# [33] = test system: Wnk1, Wnk2, Wnk3
# Experimental: as §1
# [34] = target: ZAK (Homo sapiens (Human), UniProt Q9NYL2)
# Experimental: as §1
# [35] = range class, read-out: % inhibition
structure (smiles),measurement,setting,value
"Nc1ncc(-c2ccc(NS(=O)(=O)C3CC3)cc2OC2CCCCC2)cc1-c1ccc2c(c1)CCNC2=O [Compound I-65, N-(4-(6-amino-5-(1-oxo-1,2,3,4-tetrahydroisoquinolin-6-yl)pyridin-3-yl)-3-(cyclohexyloxy)phenyl) cyclopropanesulfonamide]",% inhibition,"[1]; 10 μM, range class",0.0%
same,inhibition (10 μM),[1],−2.8%
same,inhibition at 10 µM,[2]; [35],0%
same,inhibition at 10 µM,[2]; read-out: inhibition (10 μM),-41.5%
same,inhibition at 10 µM,[3]; [35],0%
same,inhibition at 10 µM,[3]; read-out: inhibition (10 μM),29.9%
same,inhibition at 10 µM,[4]; [35],0%
same,inhibition at 10 µM,[4]; read-out: inhibition (10 μM),0.1%
same,inhibition at 10 µM,[5]; [35],0%
same,inhibition at 10 µM,[5]; read-out: inhibition (10 μM),20.3%
same,inhibition at 10 µM,[6]; [35],75 to 90%
same,inhibition at 10 µM,[6]; read-out: inhibition (10 μM),86%
same,% inhibition,"[7]; 10 μM, range class",75-90%
same,inhibition (10 μM),[7],81.8%
same,inhibition at 10 µM,[8]; [35],0%
same,inhibition at 10 µM,[8]; read-out: inhibition (10 μM),-35%
same,inhibition at 10 µM,[9]; [35],0%
same,inhibition at 10 µM,[9]; read-out: inhibition (10 μM),33.8%
same,inhibition at 10 µM,[10]; [35],0%
same,inhibition at 10 µM,[10]; read-out: inhibition (10 μM),15%
same,inhibition at 10 µM,[11]; [35],0%
same,inhibition at 10 µM,[11]; read-out: inhibition (10 μM),3.3%
same,inhibition at 10 µM,[12]; [35],35 to 40%
same,inhibition at 10 µM,[12]; read-out: inhibition (10 μM),48.5%
same,inhibition at 10 µM,[13]; [35],0%
same,inhibition at 10 µM,[13]; read-out: inhibition (10 μM),-3.9%
same,% inhibition,"[14]; 10 μM, range class",0.0%
same,inhibition (10 μM),[14],−29.4%
same,inhibition at 10 µM,[15]; [35],0%
same,inhibition at 10 µM,[15]; read-out: inhibition (10 μM),-45.1%
same,inhibition at 10 µM,[16]; [35],0%
same,inhibition at 10 µM,[16]; read-out: inhibition (10 μM),0.2%
same,inhibition at 10 µM,[17]; [35],50 to 75%
same,inhibition at 10 µM,[17]; read-out: inhibition (10 μM),72.8%
same,inhibition at 10 µM,[18]; [35],> 90%
same,inhibition at 10 µM,[18]; read-out: inhibition (10 μM),96.7%
same,inhibition at 10 µM,[19]; [35],0%
same,inhibition at 10 µM,[19]; read-out: inhibition (10 μM),31.5%
same,inhibition at 10 µM,[20]; [35],0%
same,inhibition at 10 µM,[20]; read-out: inhibition (10 μM),-14.5%
same,inhibition (10 μM),[21],61.5%
same,inhibition at 10 µM,[21]; [35],50 to 75%
same,inhibition at 10 µM,[21]; read-out: inhibition (10 μM),66.8%
same,inhibition at 10 µM,[22]; [35],0%
same,inhibition at 10 µM,[22]; read-out: inhibition (10 μM),-5.1%
same,% inhibition,"[23]; 10 μM, range class",0.0%
same,inhibition (10 μM),[23],−2.9%
same,inhibition at 10 µM,[24]; [35],0%
same,inhibition at 10 µM,[24]; read-out: inhibition (10 μM),-64%
same,inhibition at 10 µM,[25]; [35],0%
same,inhibition at 10 µM,[25]; read-out: inhibition (10 μM),-33.4%
same,inhibition at 10 µM,[26]; [35],0%
same,inhibition at 10 µM,[26]; read-out: inhibition (10 μM),-19.3%
same,inhibition at 10 µM,[27]; [35],> 90%
same,inhibition at 10 µM,[27]; read-out: inhibition (10 μM),97.8%
same,inhibition at 10 µM,[28]; [35],50 to 75%
same,inhibition at 10 µM,[28]; read-out: inhibition (10 μM),68.8%
same,inhibition at 10 µM,[29]; [35],0%
same,inhibition at 10 µM,[29]; read-out: inhibition (10 μM),1.1%
same,inhibition at 10 µM,[30]; [35],0%
same,inhibition at 10 µM,[30]; read-out: inhibition (10 μM),-25.4%
same,% inhibition,"[31]; 10 μM, range class",0.0%
same,inhibition (10 μM),[31],14.4%
same,inhibition at 10 µM,[32]; [35],0%
same,inhibition at 10 µM,[32]; read-out: inhibition (10 μM),22.2%
same,% inhibition,"[33]; 10 μM, range class",0.0%
same,inhibition (10 μM),[33],−8.3%
same,inhibition at 10 µM,[34]; [35],35 to 40%
same,inhibition at 10 µM,[34]; read-out: inhibition (10 μM),36.2%
